Values of other authors as cited in patent publication US20080058318A1 (priority 2006, published 2008).

How the values were obtained:
[1] = tested on: subjects suffering from fibromyalgia syndrome; settings: cited from earlier work; for Subjects with significant clinical improvement: after one month; for Difference between treatment group and placebo: at three months
[2] = tested on: patients with FMS; settings: open-label, cited from earlier work

Compound	Subjects with significant clinical improvement [1] [%]	Difference between treatment group and placebo [1]	Completing patients with insomnia requiring adjunctive medical therapy ([2]; 11 completing patients)	Completing patients with a positive response (50% or greater improvement in two measurements of overall pain) ([2]; 15 patients, 11 completing)
CN(C)CCC=C1c2ccccc2CCc2ccccc21 [amitriptyline]	21	no difference	–	–
CN(C)CCC=C1c2ccccc2C=Cc2ccccc21 [cyclobenzaprine]	12	no difference	–	–
COc1ccc(C(CN(C)C)C2(O)CCCCC2)cc1 (stereo not drawn) [venlafaxine]	–	–	3 of 11	Six of 11
